The text below walks through data of ChEMBL document CHEMBL1201862, “PubChem BioAssay data set” (2004).

A word on the AC50: it is the midpoint of the concentration-response curve, whichever way the signal moves.

Calls of active or inactive are those of the source.

The target in assay [1] is Albumin (Bos taurus, UniProt P02769). Briefly: Counterscreen for inhibitors of T-cell receptor (TCR)-CD3 interaction: Fluorescence-based biochemical high throughput dose response assay to identify inhibitors of T-cell receptor (TCR)-CD3 interaction using a TAMRA-labeled BSA probe. In kind it is functional. (Counterscreens check selectivity or assay interference.)
Assay [2] addresses T1, Polyadenylate-binding protein 1 (Homo sapiens, UniProt P11940). Briefly: PABP1 MLLE–PAM2 interaction inhibitors, dose response, miRNA deadenylation inhibitor project, biochemical, fluorescence polarization, Cy5-PAM2 peptide, secondary (AID 602260). The settings on record: read-out: IC50_Mean. In kind it is functional. On the technique in general: Polarisation of emitted light reports the rotation of a fluorescent probe.

Assay [3] has as its target Glutathione-S-transferase (Schistosoma japonicum, UniProt Q26513). Kind of assay: biotin-GST/anti-GST TR-FRET signal inhibitors, dose response, artefact control for Vif-APOBEC3G degradation inhibitor project, biochemical (AID 1117362). In kind it is functional. In general terms: In TR-FRET formats the signal depends on donor and acceptor labels being close together.
The target of assay [4] is T1, Polyadenylate-binding protein 1. Kind of assay: PABP1 MLLE–PAM2 binding inhibitor potency, dose response, biochemical, fluorescence polarization, FITC-PAM2 peptide (AID 602259). In kind it is functional. The settings on record: read-out: IC50_Mean.
For assay [5], the target named is T2, ORF 73 (Human herpesvirus 8, UniProt O40947).
T2 sequence (O40947 whole entry): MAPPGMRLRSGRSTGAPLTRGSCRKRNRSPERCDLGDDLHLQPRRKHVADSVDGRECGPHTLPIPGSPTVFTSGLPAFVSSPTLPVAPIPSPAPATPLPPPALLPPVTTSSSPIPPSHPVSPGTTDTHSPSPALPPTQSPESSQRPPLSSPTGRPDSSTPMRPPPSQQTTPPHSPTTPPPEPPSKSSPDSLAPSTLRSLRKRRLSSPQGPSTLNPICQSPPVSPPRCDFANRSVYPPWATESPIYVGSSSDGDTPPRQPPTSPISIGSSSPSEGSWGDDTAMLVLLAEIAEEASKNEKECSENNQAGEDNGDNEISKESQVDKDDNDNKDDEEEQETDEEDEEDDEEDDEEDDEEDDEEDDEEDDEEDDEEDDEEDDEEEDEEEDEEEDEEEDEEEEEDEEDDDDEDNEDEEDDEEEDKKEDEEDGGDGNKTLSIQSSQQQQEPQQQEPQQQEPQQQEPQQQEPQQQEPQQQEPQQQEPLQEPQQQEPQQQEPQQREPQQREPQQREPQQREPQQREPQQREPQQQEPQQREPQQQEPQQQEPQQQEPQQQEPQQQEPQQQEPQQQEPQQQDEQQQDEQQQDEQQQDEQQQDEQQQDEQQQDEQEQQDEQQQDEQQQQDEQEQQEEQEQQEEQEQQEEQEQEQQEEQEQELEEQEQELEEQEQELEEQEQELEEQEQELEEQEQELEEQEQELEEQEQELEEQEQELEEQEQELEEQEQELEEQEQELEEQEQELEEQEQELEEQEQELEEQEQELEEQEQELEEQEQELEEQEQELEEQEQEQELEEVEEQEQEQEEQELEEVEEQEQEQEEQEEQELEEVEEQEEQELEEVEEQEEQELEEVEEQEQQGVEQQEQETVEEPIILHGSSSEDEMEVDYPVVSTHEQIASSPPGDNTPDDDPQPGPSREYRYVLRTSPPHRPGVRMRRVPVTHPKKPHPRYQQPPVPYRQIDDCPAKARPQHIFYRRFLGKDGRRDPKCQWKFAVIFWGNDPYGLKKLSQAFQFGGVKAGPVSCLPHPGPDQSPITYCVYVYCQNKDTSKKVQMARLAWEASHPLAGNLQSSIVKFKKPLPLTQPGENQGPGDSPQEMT
Briefly: inhibitors of C-LANA binding to LBS DNA, dose response, biochemical, fluorescence polarization, cherry-picked samples (AID 504725).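 Further: fluorescence polarization of a labeled DNA duplex reporting LANA DNA binding; potency is for inhibitors that block LANA binding to the DNA.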 More on the design: species or system Human gammaherpesvirus 8.

The test system of assay [6] is Salmon testes DNA. Briefly: DNA intercalators displacing acridine orange, dose response, artefact control for KSHV LANA DNA-binding inhibitor project, biochemical, fluorescence polarization, cherry-picked samples, set 2 (AID 504727). Set-up: species or system Salmonidae.
Assay [7] has as its target T3, Apoptotic protease-activating factor 1 (Homo sapiens, UniProt O14727).
T3 sequence (O14727 whole entry): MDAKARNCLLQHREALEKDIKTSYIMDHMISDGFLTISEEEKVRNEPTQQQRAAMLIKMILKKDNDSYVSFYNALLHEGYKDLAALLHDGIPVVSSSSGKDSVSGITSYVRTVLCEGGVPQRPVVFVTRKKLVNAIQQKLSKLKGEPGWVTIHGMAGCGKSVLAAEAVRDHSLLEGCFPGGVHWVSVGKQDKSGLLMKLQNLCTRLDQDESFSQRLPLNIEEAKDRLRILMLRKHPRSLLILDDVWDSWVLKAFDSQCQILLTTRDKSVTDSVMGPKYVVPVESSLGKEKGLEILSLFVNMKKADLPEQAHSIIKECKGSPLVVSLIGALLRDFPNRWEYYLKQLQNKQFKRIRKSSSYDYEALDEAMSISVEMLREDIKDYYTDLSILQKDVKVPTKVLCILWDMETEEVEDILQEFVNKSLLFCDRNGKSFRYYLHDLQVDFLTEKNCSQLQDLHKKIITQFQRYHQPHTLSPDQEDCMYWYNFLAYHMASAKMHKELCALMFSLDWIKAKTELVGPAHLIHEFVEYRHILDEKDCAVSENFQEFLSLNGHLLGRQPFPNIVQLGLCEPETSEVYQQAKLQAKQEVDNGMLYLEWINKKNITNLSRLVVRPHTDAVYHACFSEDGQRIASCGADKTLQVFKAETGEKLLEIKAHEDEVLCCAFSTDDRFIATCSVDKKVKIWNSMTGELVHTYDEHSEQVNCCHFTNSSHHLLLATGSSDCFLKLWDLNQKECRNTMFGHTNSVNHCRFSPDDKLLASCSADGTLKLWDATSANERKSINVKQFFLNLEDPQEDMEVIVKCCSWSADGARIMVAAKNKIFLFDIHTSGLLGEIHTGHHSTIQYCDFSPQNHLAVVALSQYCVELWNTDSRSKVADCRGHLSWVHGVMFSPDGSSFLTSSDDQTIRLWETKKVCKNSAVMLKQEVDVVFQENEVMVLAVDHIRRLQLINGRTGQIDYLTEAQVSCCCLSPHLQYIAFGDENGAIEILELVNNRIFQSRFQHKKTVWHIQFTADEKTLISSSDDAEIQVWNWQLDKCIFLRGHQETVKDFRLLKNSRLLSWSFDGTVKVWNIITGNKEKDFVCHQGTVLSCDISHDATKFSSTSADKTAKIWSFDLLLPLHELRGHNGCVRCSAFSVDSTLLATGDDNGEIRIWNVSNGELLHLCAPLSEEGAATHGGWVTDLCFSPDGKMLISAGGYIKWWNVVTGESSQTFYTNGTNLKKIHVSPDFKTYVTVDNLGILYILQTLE
In kind it is functional.

The target of assay [8] is Large T antigen (Simian virus 40, UniProt P03070). In kind it is functional, Betapolyomavirus macacae.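 Further: Confirmatory-stage PubChem screen for compounds that inhibit SV40 T antigen.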
Assay [9] concerns the target Dual specificity protein phosphatase 3 (Homo sapiens, UniProt P51452). Kind of assay: SAR VHR1 Fluorescent Assay for In Vitro dose response studies. [Related pubchem assays (depositor defined):AID1654, AID1661, AID1878, AID1992, AID2004, AID2070, AID2085]. In kind it is functional.
Assay [10] has as its target Eukaryotic translation initiation factor 4E (Mus musculus, UniProt P63073). Kind of assay: eIF4E–eIF4G protein interaction inhibitors, dose response, biochemical, TR-FRET (AID 855).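 Further: potency for disrupting eIF4E binding to eIF4GI seen as loss of FRET.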 In kind it is functional.
Assay [11] addresses Genome polyprotein (dengue virus type 2, UniProt P29990). Kind of assay: Dengue-2 NS5 methyltransferase inhibitors, primary screen, biochemical, confirmation dose response (AID 588689). In kind it is functional.
The target of assay [12] is Induced myeloid leukemia cell differentiation protein Mcl-1 (Homo sapiens, UniProt Q07820). In kind it is functional.
For assay [13], the target named is T4, Tyrosine-protein phosphatase non-receptor type 7 (Homo sapiens, UniProt P35236).
T4 sequence (P35236 whole entry): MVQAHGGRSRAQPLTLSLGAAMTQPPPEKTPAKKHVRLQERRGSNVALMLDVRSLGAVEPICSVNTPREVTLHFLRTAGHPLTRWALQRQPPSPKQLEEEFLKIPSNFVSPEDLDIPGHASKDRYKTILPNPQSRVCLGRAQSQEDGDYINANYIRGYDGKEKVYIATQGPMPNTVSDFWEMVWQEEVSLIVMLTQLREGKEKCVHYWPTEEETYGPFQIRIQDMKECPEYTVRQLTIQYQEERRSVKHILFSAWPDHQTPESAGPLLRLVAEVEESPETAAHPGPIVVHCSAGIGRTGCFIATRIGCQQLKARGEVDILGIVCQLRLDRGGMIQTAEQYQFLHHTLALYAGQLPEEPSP
Kind of assay: redox-dependent HePTP inhibition, mechanism study, biochemical, fluorescence (AID 2068). In kind it is functional.

T1 sequence (P11940 whole entry): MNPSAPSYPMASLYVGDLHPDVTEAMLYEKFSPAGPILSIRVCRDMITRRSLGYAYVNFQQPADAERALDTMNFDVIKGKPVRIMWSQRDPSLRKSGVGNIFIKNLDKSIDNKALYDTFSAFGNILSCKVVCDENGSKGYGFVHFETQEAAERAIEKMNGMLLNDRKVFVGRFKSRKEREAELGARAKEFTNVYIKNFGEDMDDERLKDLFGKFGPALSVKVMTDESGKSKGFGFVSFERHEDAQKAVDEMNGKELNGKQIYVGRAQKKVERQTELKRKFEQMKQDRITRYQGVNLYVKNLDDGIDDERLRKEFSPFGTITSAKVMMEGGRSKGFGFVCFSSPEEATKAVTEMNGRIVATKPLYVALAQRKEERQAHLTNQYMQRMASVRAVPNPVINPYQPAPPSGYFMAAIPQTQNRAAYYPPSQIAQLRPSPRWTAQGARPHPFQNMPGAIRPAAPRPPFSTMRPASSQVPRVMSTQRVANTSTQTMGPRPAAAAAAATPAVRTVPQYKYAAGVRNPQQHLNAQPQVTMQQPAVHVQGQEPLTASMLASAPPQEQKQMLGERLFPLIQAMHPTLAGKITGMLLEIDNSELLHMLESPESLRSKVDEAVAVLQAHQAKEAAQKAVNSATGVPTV
Induced myeloid leukemia cell differentiation protein Mcl-1, sequence (Q07820 whole entry): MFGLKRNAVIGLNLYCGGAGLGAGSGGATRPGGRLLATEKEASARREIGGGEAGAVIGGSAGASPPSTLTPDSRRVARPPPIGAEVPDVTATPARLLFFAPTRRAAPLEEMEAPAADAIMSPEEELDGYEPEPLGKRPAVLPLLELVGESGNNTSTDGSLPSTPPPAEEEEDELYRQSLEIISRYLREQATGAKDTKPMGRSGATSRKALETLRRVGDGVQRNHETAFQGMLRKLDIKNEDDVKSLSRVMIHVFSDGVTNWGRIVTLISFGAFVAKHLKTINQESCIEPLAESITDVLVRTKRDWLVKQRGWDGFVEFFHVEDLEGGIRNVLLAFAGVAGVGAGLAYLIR
Albumin, sequence (P02769 whole entry): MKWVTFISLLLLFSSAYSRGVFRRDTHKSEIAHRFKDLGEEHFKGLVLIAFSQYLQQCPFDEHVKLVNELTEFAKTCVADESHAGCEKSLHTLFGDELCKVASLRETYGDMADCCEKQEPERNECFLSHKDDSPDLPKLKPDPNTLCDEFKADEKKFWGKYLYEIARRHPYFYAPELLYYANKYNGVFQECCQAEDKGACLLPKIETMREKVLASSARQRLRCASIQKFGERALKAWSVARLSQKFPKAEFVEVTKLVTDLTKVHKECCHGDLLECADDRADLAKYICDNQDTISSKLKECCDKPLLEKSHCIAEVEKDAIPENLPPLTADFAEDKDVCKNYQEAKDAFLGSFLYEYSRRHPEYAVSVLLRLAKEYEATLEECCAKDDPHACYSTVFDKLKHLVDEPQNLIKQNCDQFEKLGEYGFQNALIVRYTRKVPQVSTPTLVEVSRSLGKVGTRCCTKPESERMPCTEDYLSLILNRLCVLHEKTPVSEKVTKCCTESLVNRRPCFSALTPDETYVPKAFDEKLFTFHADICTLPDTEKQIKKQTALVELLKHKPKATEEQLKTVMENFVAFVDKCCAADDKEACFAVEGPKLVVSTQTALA
Large T antigen, sequence (P03070 whole entry): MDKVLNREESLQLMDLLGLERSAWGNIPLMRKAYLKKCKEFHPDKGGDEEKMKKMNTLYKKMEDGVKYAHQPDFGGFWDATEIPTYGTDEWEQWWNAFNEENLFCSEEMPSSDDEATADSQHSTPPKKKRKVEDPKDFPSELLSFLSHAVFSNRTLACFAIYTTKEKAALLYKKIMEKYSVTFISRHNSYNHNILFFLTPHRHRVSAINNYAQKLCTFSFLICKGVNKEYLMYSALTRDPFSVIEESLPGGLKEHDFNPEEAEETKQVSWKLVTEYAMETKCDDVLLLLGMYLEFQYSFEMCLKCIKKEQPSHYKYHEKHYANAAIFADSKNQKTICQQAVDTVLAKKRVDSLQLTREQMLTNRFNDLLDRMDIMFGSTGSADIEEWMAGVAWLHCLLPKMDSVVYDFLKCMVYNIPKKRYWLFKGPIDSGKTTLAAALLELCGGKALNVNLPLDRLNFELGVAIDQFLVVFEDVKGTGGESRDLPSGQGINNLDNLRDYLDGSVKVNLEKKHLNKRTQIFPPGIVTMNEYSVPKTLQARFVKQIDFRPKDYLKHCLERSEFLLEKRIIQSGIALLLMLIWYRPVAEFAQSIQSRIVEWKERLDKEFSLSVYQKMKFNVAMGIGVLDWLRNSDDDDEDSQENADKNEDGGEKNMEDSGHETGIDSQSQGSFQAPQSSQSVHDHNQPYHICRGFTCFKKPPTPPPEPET
Genome polyprotein, sequence (P29990 2492-3391 limits assumed): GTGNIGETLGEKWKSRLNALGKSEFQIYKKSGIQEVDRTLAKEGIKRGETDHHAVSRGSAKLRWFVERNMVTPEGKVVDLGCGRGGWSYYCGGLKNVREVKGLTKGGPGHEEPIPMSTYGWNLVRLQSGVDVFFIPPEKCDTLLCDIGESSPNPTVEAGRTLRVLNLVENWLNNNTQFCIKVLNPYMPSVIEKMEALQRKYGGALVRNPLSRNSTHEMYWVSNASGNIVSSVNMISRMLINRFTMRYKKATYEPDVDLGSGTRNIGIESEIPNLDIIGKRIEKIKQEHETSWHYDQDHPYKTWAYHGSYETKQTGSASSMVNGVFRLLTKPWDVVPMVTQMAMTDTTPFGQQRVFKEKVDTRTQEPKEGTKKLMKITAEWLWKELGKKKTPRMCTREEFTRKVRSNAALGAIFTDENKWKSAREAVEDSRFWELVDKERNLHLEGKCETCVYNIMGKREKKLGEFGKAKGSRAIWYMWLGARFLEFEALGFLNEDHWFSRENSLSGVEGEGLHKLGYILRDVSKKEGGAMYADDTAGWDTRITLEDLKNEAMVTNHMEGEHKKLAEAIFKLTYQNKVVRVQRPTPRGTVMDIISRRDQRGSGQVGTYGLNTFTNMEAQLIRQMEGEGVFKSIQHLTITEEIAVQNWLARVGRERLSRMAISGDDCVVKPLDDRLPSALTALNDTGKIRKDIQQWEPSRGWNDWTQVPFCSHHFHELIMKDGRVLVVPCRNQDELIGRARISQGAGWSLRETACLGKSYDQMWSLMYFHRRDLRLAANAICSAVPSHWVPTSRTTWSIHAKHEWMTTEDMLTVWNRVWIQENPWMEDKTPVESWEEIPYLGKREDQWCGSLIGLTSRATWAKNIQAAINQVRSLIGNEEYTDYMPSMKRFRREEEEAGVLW
Eukaryotic translation initiation factor 4E, sequence (P63073 whole entry): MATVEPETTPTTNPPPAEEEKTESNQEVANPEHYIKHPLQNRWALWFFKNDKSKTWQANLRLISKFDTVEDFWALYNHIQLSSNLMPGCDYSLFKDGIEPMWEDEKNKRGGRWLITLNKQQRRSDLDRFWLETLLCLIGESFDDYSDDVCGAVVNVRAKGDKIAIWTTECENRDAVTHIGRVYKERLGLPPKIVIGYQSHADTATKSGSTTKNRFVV
Glutathione-S-transferase, sequence (Q26513 whole entry): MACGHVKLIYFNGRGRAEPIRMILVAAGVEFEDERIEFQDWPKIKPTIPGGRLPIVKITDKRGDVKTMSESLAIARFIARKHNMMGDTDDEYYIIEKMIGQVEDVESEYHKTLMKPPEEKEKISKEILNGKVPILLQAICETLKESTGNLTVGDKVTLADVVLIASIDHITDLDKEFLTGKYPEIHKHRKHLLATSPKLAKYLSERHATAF
Dual specificity protein phosphatase 3, sequence (P51452 whole entry): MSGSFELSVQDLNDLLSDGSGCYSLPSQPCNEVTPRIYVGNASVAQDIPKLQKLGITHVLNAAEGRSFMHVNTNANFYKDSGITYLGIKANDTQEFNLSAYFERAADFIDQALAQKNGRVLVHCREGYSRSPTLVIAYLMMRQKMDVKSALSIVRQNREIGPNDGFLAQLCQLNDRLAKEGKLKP

For the molecule `COCCNC(=O)Nc1ccc2nc(-c3ccco3)c(-c3ccco3)nc2c1`, the IC50 is > 94.1 µM (inactive) in assay [1]; > 66 µM (inactive) in [2]; > 100 µM (active) in assay [3]; 39.2 µM (inactive) in [4]; 52 µM (active) in [7]; > 100 µM (active) in [8]. Also, the IC50 was 0.492 µM (active) in assay [9]; 50 µM (inactive) in assay [10]; 27.9 µM (active) in [11]; 0.831 µM (active) in assay [12]; 0.198 µM (active) in assay [13]. Also, the figures for the AC50 in [5] and in assay [6] were 23.5 µM (active) and 63.1 µM (active), respectively.
